Assay in all cases: NCI-60 cell line screen, 48 h
Experiment [1] has as its system SK-MEL-5 melanoma.
Experiment [2] relates to TK-10 renal.
Experiment [3] relates to SN12C renal.
For experiment [4], the system named is OVCAR-8 ovarian.
The subject of experiment [5] is ACHN renal.
For experiment [6], the system named is UO-31 renal.
Experiment [7] concerns T-47D breast.
For experiment [8], the system named is SR leukemia.
Experiment [9] deals with NCI-H522 lung.
The test system of experiment [10] is BT-549 breast.
Experiment [11] relates to RPMI-8226 leukemia.
Experiment [12] has as its system MDA-MB-435.
Experiment [13] has as its system OVCAR-4 ovarian.
The test system of experiment [14] is HL-60(TB) leukemia.
The subject of experiment [15] is A549 NSCLC.
The subject of experiment [16] is SK-MEL-28 melanoma.
Experiment [17] relates to HOP-92 NSCLC.
In experiment [18] the test system is MDA-MB-231 breast.

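Growth conditions: 96-well plates. Treatment: test compound, 48 hours, 5 concentrations. Analysis: linear interpolation between bracketing concentrations; unreached endpoints set to highest concentration. The concentration for full growth arrest is given as TGI.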

For the compound `Cc1c(C=C(C#N)C#N)c(=O)n(C)c(=O)n1C`, the TGI in experiment [1], in experiment [2], in [3], in [4], in experiment [5] and in [6] was above 100 µM each time. For the same compound, the TGI in experiment [7], in experiment [8], in [9], in experiment [10], in experiment [11] and in [12] was above 100 µM throughout. In addition, the TGI in experiment [13], in experiment [14], in experiment [15], in experiment [16], in [17] and in experiment [18] was above 100 µM each time.

For `COc1ccc(-c2cc(-c3ccccc3)nc(N)n2)c(O)c1`, the TGI in experiment [1] is above 100 µM; in experiment [2] it was above 100 µM; in experiment [3] it was above 100 µM; in experiment [4], above 100 µM; in experiment [5], above 100 µM; in experiment [6], above 23.3 µM. Also, the TGI in experiment [7] was above 100 µM; in experiment [8] it was above 26.2 µM; in experiment [9], above 100 µM; in experiment [10], above 29.3 µM; in [11], 5.76 µM; in experiment [12], above 100 µM. Also, the TGI in experiment [13] is above 100 µM; in experiment [14], above 20.6 µM; in [15], above 100 µM; in experiment [16], above 100 µM; in [17], above 100 µM; in experiment [18], above 100 µM.

Regarding `S=c1sscc1N1CCSc2ssc(=S)c21`, the TGI in [1] is above 100 µM; in experiment [2], 81.8 µM; in experiment [3], above 100 µM; in [4], 18.9 µM; in experiment [5] it was above 100 µM; in experiment [6], above 100 µM. For the same compound, the TGI was above 100 µM in [7]; above 100 µM in [8]; 59.7 µM in experiment [9]; above 100 µM in experiment [10]; above 100 µM in experiment [11]; above 100 µM in experiment [12]. In addition, the TGI in [13] is 29.8 µM; in experiment [14], above 100 µM; in experiment [15], above 100 µM; in experiment [16] it was above 100 µM; in experiment [17] it was 31 µM; in [18] it was above 100 µM.

As for `COc1ccccc1NC1=NCC(C)S1` (stereo not given), the TGI in [1], in [2], in experiment [3], in [4], in experiment [5] and in experiment [6] was above 100 µM in each case. Moreover, the TGI in [7], in experiment [8], in experiment [9], in experiment [10], in experiment [11] and in experiment [12] was above 100 µM each time. Moreover, the TGI in [14], in experiment [15], in experiment [16], in experiment [17] and in experiment [18] was above 100 µM each time.

With `COc1cc2c3c4c1OCc1c5c(cc(c1-4)CC3[N+](C)(C)CC2)OCO5` (stereo not given), the TGI in experiment [1] was above 100 µM; in experiment [2], above 100 µM; in experiment [3] it was 39.4 µM; in experiment [4], above 100 µM; in [5], above 100 µM; in [6], above 100 µM. Also, the TGI in [7] was above 100 µM; in [8], above 100 µM; in [9], 98 µM; in experiment [10], 12.3 µM; in [11], above 100 µM; in experiment [12] it was above 100 µM. For the same compound, the TGI in experiment [13], in [14], in experiment [15], in experiment [16], in experiment [17] and in experiment [18] was above 100 µM throughout.

Regarding `Nc1c(O)c(C(=O)O)cc2ccccc12`, the TGI in experiment [1] is 27.9 µM; in experiment [2], above 100 µM; in experiment [3] it was above 100 µM; in [4], above 100 µM; in experiment [5], 64.3 µM; in experiment [6], above 100 µM. In addition, the TGI in experiment [7] was above 100 µM; in experiment [8] it was above 100 µM; in [9], 54.2 µM; in [10] it was 60.3 µM; in experiment [11], 95.7 µM; in [12], 33.4 µM. In addition, the TGI in experiment [13] was 48.9 µM; in [14] it was above 100 µM; in [15], above 100 µM; in [16], above 100 µM; in experiment [17], above 100 µM; in experiment [18] it was 28.8 µM.

In the case of `CC(=O)Nc1ccc2c3c(cc(O)c2c1)N(C(=O)CCCCCC(=O)Nc1ccc2c4c(cc(O)c2c1)N(C(=O)OC(C)(C)C)CC4CCl)CC3CCl` (stereo not given), the TGI is 2.98 µM in experiment [1]; above 70.6 µM in experiment [2]; above 38.3 µM in [3]; 15.2 µM in [4]; above 100 µM in experiment [5]; above 100 µM in [6]. Besides, the TGI in experiment [7] was 7.82 µM; in experiment [8], 4.3 µM; in experiment [9], 5.78 µM; in [10], 10.9 µM; in [11], above 34.6 µM; in experiment [12] it was 3.29 µM. Moreover, the TGI in experiment [13] was above 63.6 µM; in experiment [14], above 36.1 µM; in experiment [15] it was above 55 µM; in experiment [16], above 63.2 µM; in experiment [17] it was 23.7 µM; in experiment [18], 18.5 µM.

The values are drawn from PubChem BioAssay (NCI).
